According to patent US20250215015A1 (THE REGENTS OF THE UNIVERSITY OF CALIFORNIA, priority 2022, published 2025):
Where two headings read alike, the source gives them in different places. Values belong to the compound of their own block, whether it stands above or below them.

Legend:
[1] = system: U87 GBM; experiment: GBM agent potency in U87 cells; assay type: cell-based
Excerpt: UCN-01 potency. The potency of UCN-01 markedly exceeds that of standard GBM agents in GBM U87 cells (Table 1), and it engages a unique pattern of signaling pathways to drive apoptosis. The ability of UCN-01 at noncytotoxic doses to abrogate G2 arrest is evident in p53 dysregulated cells. p53 is mutated in about 35% of primary GBM and 65% of secondary GBM. p53 pathway dysregulation occurs in 86% of GBM.

[2] = In vitro unbound fraction of UCN-01 in human plasma; assay type: in vitro ADME; parameters: dose or concentration left out as unconfirmed
Excerpt: (§1) UCN-01 pharmacokinetics and nanoliposomes. Free UCN-01 is instantly bound by human alpha-1 acid glycoprotein (AAG) plasma protein with extremely high affinity and remains in circulation for remarkably extended periods of time. […] Unfortunately this greatly diminishes the availability of free (active) compound so that the in vivo effectiveness of UCN-01 is compromised even when it enters tumor tissue when bound to AAG the UCN-01 molecule is not bioavailable. Increasing the UCN-01 dose to sufficiently saturate AAG in the plasma elevates the risk of toxicity.

[3] = In vitro unbound fraction of UCN-01 in mouse plasma; assay type: in vitro ADME; parameters: dose or concentration left out as unconfirmed
Excerpt: as §1

[4] = In vitro unbound fraction of UCN-01 in rat plasma; assay type: in vitro ADME; parameters: dose or concentration left out as unconfirmed
Excerpt: as §1

[5] = In vitro unbound fraction of UCN-01 in dog plasma; assay type: in vitro ADME; parameters: dose or concentration left out as unconfirmed
Excerpt: as §1

[6] = system: GBM patient cancer stem cell derived GBM tumorsphere lines; experiment: GBM cytotoxicity, MTT assay in tumorsphere lines; assay type: cell-based; details: 8 GBM tumorsphere lines, almost all cell lines
Experimental: GBM cytotoxicity with UCN-01. 8 different GBM patient cancer stem cell derived GBM tumorsphere lines were incubated with a range of UCN-01 doses. The percent viable cells were determined with the MTT assay.

[7] = system: radioresistant U87 GBM cells; experiment: GBM radiosensitization in culture; assay type: cell-based; details: mildly cytotoxic nM levels, clinically relevant radiation doses
Experimental: Bar graph of radiation dose and UCN-01 dose (nM) vs percent viable U87 GBM cells. Red columns for 0 Gy and purple for 5 Gy—a clinically relevant dose.
GBM radiosensitization with low doses of the staralog UCN-01. […] As a precursor to studies with a range of staralogs, extensive model investigations with the class parent staralog model system, STS were performed.

[8] = system: U87 glioblastoma cells; experiment: Potentiation of temozolomide; assay type: cell-based
[9] = system: phosphorylation of Akt; experiment: Western blot for Akt, P-Akt, cleaved PARP; assay type: cell-based; details: U87 cells
Excerpt: FIG. 5A: Western blot analysis for Akt, P-Akt, cleaved PARP. […] Representative blot from two independent experiments is shown.

[10] = system: U87 cells; experiment: FACS analysis for DNA content; assay type: cell-based; details: treated cells
[11] = system: U87 flank tumors; experiment: U87 flank tumor growth in mice; assay type: in vivo, nu/nu mice
[12] = Toxicity in mice: body weight and liver enzymes; assay type: in vivo; details: mice bearing U87 GBM flank tumors
Excerpt: Weight declined with STS but not PBS or LSTS. Bottom panel is bar graph depicting liver enzymes ALT/AST before and after treatment. For free STS the post treatment levels were flagged as abnormal (stars). ALT/AST enzyme levels were normal with empty liposomes (control) and LSTS. Reference levels shown by dashed lines.

Compound: CN[C@@H]1C[C@H]2O[C@@](C)([C@@H]1OC)n1c3ccccc3c3c4c(c5c6ccccc6n2c5c31)C(=O)N[C@H]4O [UCN-01, 7-hydroxystaurosporine]
- IC50 [1]: 50 nM
- Unbound fraction % [2]: <0.02%
- Unbound fraction % [3]: 1.14%
- Unbound fraction % [4]: 1.75%
- Unbound fraction % [5]: 0.49%
- IC50 values [6]: low nanomolar (nM) range
- sensitization to radiation [7]: able to sensitize
- potentiation of temozolomide (TMZ) [8]: potentiated temozolomide (TMZ)

- IC50 ([1]; Homo sapiens, U-87 MG): 1000 nM
Compound: COc1cccc2c1C(=O)c1c(O)c3c(c(O)c1C2=O)C[C@@](O)(C(=O)CO)C[C@@H]3O[C@H]1C[C@H](N)[C@H](O)[C@H](C)O1 [Doxorubicin]

- IC50 ([1]; Homo sapiens, U-87 MG): 50000 nM
Compound: Cn1nnc2c(C(N)=O)ncn2c1=O [Temozolomide]

Compound: CN[C@@H]1C[C@H]2O[C@@](C)([C@@H]1OC)n1c3ccccc3c3c4c(c5c6ccccc6n2c5c31)C(=O)NC4 [STS, Staurosporine]
- PARP cleavage [9]: stimulated caspase 3 dependent PARP cleavage
- phospho-Akt [9]: suppression of phospho-Akt
- DNA content (FACS) [10]: G0 shift consistent with apoptosis
- in vivo GBM proliferation (Ki-67) [11]: did not
- body weight [12]: reduction in body weight

Compound: O=c1[nH]cc(F)c(=O)[nH]1 [Compound 5-FU, 5-FU]
- IC50 [1]: 2500 nM

Compound: O=NN(CCCl)C(=O)NCCCl [BCNU]
- IC50 [1]: 60000 nM
